Assay results taken from US12606561B2, “Substituted pyrazolo[1,5-a][1,3,5]triazines as CDK inhibitors” (QURIENT CO., LTD., priority 2018, dated 2026).

Experiments:
[1] = target: T1, CDK7/Cyclin H/MNAT1 (Homo sapiens, UniProt P50613); assay: Enzymatic assay for CDK7 (LANCE Ultra kinase assay, FRET based); type: biochemical; settings: for IC50: ATP at Km
T1 construct: purchased Invitrogen PR6749B
Outline: (§1)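 Kinase activity of each purified CDK/cyclin complex was followed in a FRET format where a Europium anti-phospho-antibody recognises phosphorylated ULight-labeled peptide. ATP was held at its Km.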

[2] = system: MV4-11; assay: Cellular MV4-11 viability assay (CellTiter-Glo, 72 hours); type: cell-based; settings: Homo sapiens; MV4-11 cells
Protocol: Human […] cell line, MV4-11_(ATCC, Cat #CRL-9591), NSCLC (Non-small cell lung cancer) cell line H460 (ATCC, Cat #HTB-177), A2780 (ECACC, Cat #93112519) and OVCAR-3(ATCC, Cat #HTB-161) were obtained from ATCC. Cells were grown in RPMI-1640 media (Invitrogen, Cat #22400-089) supplemented with 10% FBS (Invitrogen, Cat #10099141) and 1% penicillin/streptomycin (Invitrogen, Cat #15070063) and cultured at 37° C., 5% CO2 in a humidified chamber. All cell lines were routinely tested for mycoplasma.
To effect of the CDK7 inhibitor to inhibit the growth of target cancer cells, viability assay were conducted a 72 hour time period. Briefly, the candidate cell line was plated in 96 well plate at the following density of cells respectively. 1×10^4 cells/well for MV4-11, 5×10^3 for H460 and OVCAR-3, and 1×10^3 for A2780. After 24 hours, the cells were treated with various concentrations of the compound (ranging from 0.0015 uM to 10 uM). DMSO solvent without compound served as a control and final DMSO concentration lest than 0.1%. After 72 hours of incubation at 37° C., 5% CO2 incubator, cells were analyzed for the viability using the CellTiter-Glo Luminescent Cell Viability Assay (Promega, Cat #G7570). All viability assays were performed in duplicate and Luminescence was read using an Envision (Perkin Elmer, USA). Data was analyzed using XLfit software.

[3] = target: T2, CDK1/Cyclin B (Homo sapiens, UniProt P06493); assay: Enzymatic assay for CDK1 (LANCE Ultra kinase assay, FRET based); type: biochemical; settings: ATP at Km; read-out: CDK1 enzymatic activity IC50
T2 construct: purchased Invitrogen PR4768C
Outline: as §1

[4] = target: T3, CDK5/p25 (Homo sapiens, UniProt Q00535); assay: Enzymatic assay for CDK5 (LANCE Ultra kinase assay, FRET based); type: biochemical; settings: ATP at Km
T3 construct: purchased Invitrogen PR8543B
Outline: (§2)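 Inhibition was measured at ATP Km with 68 nM ULight-MBP peptide and CDK2/Cyclin A ([…]) or CDK5/p25 ([…]), using 8-dose 4-fold compound dilutions from DMSO. Kinase reaction ran 60 min at 23° C, then Eu anti-phospho-MBP plus EDTA were added for another 60 min before the fluorescence read.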

[5] = target: T4, CDK2/Cyclin A (Homo sapiens, UniProt P24941); assay: Enzymatic assay for CDK2 (LANCE Ultra kinase assay, FRET based); type: biochemical; settings: ATP at Km
T4 construct: purchased Invitrogen PV6290
Outline: as §2

[6] = system: A2780; assay: A2780 viability assay (CellTiter-Glo, 72 hours); type: cell-based; settings: Homo sapiens; A2780 cells
Outline: (§3)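 Each line was plated at its own density (1×10^4, 5×10^3 and 1×10^3 cells/well for MV4-11, OVCAR-3 and A2780 respectively) in RPMI-1640 with 10% FBS. Treatment with compound, 0.0015 uM to 10 uM and DMSO under 0.1%, lasted 72 h. Surviving cells were quantified by CellTiter-Glo.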

[7] = system: OVCAR-3; assay: OVCAR-3 viability assay (CellTiter-Glo, 72 hours); type: cell-based; settings: Homo sapiens; OVCAR-3 cells
Outline: as §3

T3 sequence (Q00535 whole entry): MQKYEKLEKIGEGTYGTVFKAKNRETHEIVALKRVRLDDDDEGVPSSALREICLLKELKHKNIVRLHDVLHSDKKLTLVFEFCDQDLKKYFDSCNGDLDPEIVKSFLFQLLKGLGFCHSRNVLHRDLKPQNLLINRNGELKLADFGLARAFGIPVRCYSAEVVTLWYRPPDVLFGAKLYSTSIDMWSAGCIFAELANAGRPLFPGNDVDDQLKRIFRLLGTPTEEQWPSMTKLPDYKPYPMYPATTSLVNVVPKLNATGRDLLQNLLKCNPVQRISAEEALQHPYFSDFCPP
T3 sequence (Q15078 99-307 partner limits assumed): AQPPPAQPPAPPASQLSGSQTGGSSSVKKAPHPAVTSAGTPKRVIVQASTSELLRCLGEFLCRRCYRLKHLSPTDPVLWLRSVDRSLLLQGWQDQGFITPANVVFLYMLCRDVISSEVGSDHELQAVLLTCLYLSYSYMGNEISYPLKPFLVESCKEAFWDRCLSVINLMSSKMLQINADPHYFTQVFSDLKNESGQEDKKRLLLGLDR
T2 sequence (P06493 whole entry): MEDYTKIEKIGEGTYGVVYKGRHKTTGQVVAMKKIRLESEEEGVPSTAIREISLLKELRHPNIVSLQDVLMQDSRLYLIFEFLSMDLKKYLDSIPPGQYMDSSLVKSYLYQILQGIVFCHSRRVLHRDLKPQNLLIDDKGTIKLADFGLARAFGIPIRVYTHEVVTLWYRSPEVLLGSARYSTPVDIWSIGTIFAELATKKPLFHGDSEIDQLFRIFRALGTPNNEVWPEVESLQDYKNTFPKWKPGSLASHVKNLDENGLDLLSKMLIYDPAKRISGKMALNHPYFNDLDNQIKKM
T2 sequence (P14635 whole entry partner): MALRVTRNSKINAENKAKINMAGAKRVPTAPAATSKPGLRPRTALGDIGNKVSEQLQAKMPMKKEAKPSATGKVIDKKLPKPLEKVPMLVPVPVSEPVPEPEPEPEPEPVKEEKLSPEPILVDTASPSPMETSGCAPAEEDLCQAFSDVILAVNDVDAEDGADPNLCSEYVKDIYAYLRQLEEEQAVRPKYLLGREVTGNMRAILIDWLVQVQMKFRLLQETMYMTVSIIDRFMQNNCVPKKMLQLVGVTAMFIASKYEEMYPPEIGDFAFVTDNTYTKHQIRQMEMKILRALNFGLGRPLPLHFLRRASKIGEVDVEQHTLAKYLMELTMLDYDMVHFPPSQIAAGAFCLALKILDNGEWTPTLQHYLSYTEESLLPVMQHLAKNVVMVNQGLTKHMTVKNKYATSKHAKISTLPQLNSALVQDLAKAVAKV
T1 sequence (P50613 whole entry): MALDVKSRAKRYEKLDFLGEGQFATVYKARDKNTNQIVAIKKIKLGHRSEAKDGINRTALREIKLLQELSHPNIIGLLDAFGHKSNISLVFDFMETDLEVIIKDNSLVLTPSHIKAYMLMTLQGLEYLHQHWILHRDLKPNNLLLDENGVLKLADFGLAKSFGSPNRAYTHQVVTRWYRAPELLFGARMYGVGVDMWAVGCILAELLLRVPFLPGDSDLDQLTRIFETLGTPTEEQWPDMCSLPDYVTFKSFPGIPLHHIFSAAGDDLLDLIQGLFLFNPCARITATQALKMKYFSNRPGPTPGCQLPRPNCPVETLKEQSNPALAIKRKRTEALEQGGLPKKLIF
T1 sequence (P51946 whole entry partner): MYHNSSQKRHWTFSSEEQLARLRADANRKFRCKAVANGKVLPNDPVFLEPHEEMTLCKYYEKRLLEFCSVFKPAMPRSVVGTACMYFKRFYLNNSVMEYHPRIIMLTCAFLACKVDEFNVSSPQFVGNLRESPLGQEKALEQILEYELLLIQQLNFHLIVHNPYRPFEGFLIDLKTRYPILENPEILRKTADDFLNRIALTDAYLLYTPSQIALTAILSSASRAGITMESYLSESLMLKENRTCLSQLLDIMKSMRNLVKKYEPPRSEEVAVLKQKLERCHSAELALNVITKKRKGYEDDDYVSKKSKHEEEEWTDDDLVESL
T1 sequence (P51948 whole entry partner): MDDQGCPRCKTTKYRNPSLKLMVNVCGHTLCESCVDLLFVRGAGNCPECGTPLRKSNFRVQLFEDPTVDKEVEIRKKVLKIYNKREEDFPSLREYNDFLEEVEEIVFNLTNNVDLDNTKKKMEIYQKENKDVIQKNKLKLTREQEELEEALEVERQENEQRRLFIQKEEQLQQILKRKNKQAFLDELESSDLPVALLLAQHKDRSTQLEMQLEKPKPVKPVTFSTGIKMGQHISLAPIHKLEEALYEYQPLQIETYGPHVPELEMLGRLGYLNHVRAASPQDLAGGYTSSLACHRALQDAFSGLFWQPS

| SMILES | IC50 [1] | CDK1/CDK7: Selectivity of CDK7 inhibition over CDK1 inhibition [1] | CDK2/CDK7: Selectivity of CDK7 inhibition over CDK2 inhibition [1] | CDK5/CDK7: Selectivity of CDK7 inhibition over CDK5 inhibition [1] | IC50 [2] | IC50 [3] | IC50 [4] | IC50 [5] | IC50 [6] | IC50 [7] |
| --- | --- | --- | --- | --- | --- | --- | --- | --- | --- | --- |
| CC(C)c1cnn2c(NCc3ccccc3-c3nccc4cc(NC(=O)/C=C/CN(C)C)ccc34)nc(NC[C@H]3CC[C@H](O)CC3)nc12 [Compound 33] | 0.1 to 1 µM | B (B indicates 50 < [fold] ≤ 500) | B (B indicates 50 < [fold] ≤ 500) | B (B indicates 50 < [fold] ≤ 500) | < 1 µM | > 1 µM | > 1 µM | > 1 µM | < 1 µM | < 1 µM |
| COC1CCC(Nc2nc(NCc3ccccc3-c3nccc4cc(NC(=O)/C=C/CN(C)C)ccc34)n3ncc(C(C)C)c3n2)CC1 (stereo not shown) [Compound 44] | < 0.1 µM | A (A indicates [fold] > 500) | A (A indicates [fold] > 500) | A (A indicates [fold] > 500) | < 1 µM | > 1 µM | > 1 µM | > 1 µM | < 1 µM | < 1 µM |
| CC(C)c1cnn2c(NCc3ccccc3-c3nccc4cc(NC(=O)C5=CCCC5)ccc34)nc(NC[C@H]3CCNC[C@@H]3O)nc12 [Compound 65] | < 0.1 µM | A (A indicates [fold] > 500) | A (A indicates [fold] > 500) | A (A indicates [fold] > 500) | < 1 µM | > 1 µM | > 1 µM | > 1 µM | < 1 µM | < 1 µM |
| CC#CC(=O)Nc1ccc2c(-c3ccccc3CNc3nc(N4CCC(N)CC4)nc4c(C(C)C)cnn34)nccc2c1 [Compound 47] | < 0.1 µM | A (A indicates [fold] > 500) | A (A indicates [fold] > 500) | B (B indicates 50 < [fold] ≤ 500) | < 1 µM | > 1 µM | > 1 µM | > 1 µM | < 1 µM | < 1 µM |
| CC(C)c1cnn2c(NCc3ccccc3-c3nccc4cc(NC(=O)C5(C#N)CC5)ccc34)nc(N3CCC(N)CC3)nc12 [Compound 49] | < 0.1 µM | A (A indicates [fold] > 500) | A (A indicates [fold] > 500) | A (A indicates [fold] > 500) | < 1 µM | > 1 µM | > 1 µM | > 1 µM | < 1 µM | < 1 µM |
| CC(C)c1cnn2c(NCc3ccccc3-c3nccc4cc(NC(=O)/C=C/CN(C)C)ccc34)nc(NCC3CNCCO3)nc12 (racemic) [Compound 62] | < 0.1 µM | A (A indicates [fold] > 500) | A (A indicates [fold] > 500) | A (A indicates [fold] > 500) | < 1 µM | > 1 µM | > 1 µM | > 1 µM | < 1 µM | < 1 µM |
| C/C=C/C(=O)Nc1ccc2c(-c3ccccc3CNc3nc(N4CCC(N)CC4)nc4c(C(C)C)cnn34)nccc2c1 [Compound 50] | < 0.1 µM | A (A indicates [fold] > 500) | A (A indicates [fold] > 500) | A (A indicates [fold] > 500) | < 1 µM | > 1 µM | > 1 µM | > 1 µM | < 1 µM | < 1 µM |
| CC(C)c1cnn2c(NCc3ccccc3-c3nccc4cc(NC(=O)/C=C/CN(C)C)ccc34)nc(N3CCCC(O)CC3)nc12 (racemic) [Compound 38] | 0.1 to 1 µM | B (B indicates 50 < [fold] ≤ 500) | B (B indicates 50 < [fold] ≤ 500) | B (B indicates 50 < [fold] ≤ 500) | < 1 µM | > 1 µM | > 1 µM | > 1 µM | < 1 µM | < 1 µM |
| C=C(F)C(=O)Nc1ccc2c(-c3ccccc3CNc3nc(N4CCNCC4)nc4c(C(C)C)cnn34)nccc2c1 [Compound 79] | < 0.1 µM | A (A indicates [fold] > 500) | A (A indicates [fold] > 500) | A (A indicates [fold] > 500) | < 1 µM | > 1 µM | > 1 µM | > 1 µM | < 1 µM | < 1 µM |
| CC(C)c1cnn2c(NCc3ccccc3-c3nccc4cc(NC(=O)/C=C/CN(C)C)ccc34)nc(N3CCC(CO)CC3)nc12 [Compound 29] | 0.1 to 1 µM | B (B indicates 50 < [fold] ≤ 500) | B (B indicates 50 < [fold] ≤ 500) | B (B indicates 50 < [fold] ≤ 500) | < 1 µM | > 1 µM | > 1 µM | > 1 µM | < 1 µM | < 1 µM |
| CC(C)c1cnn2c(NCc3ccccc3-c3nccc4cc(NC(=O)/C=C/CN(C)C)ccc34)nc(NCCCO)nc12 [Compound 28] | 0.1 to 1 µM | B (B indicates 50 < [fold] ≤ 500) | B (B indicates 50 < [fold] ≤ 500) | B (B indicates 50 < [fold] ≤ 500) | < 1 µM | > 1 µM | > 1 µM | > 1 µM | < 1 µM | < 1 µM |
| CC(C)c1cnn2c(NCc3ccccc3-c3nccc4cc(NC(=O)/C=C/CN(C)C)ccc34)nc(NCC3CCNCC3)nc12 [Compound 45] | < 0.1 µM | A (A indicates [fold] > 500) | A (A indicates [fold] > 500) | A (A indicates [fold] > 500) | < 1 µM | > 1 µM | > 1 µM | > 1 µM | < 1 µM | < 1 µM |
| CC(C)c1cnn2c(NCc3ccccc3-c3nccc4cc(NC(=O)/C=C/CN(C)C)ccc34)nc(NC3CCC(O)CC3)nc12 (stereo not shown) [Compound 36] | < 0.1 µM | A (A indicates [fold] > 500) | A (A indicates [fold] > 500) | A (A indicates [fold] > 500) | < 1 µM | > 1 µM | > 1 µM | > 1 µM | < 1 µM | < 1 µM |
